Assay results from ChEMBL document CHEMBL5154644, “Design, Synthesis, and Structure-Activity Relationship Optimization of Pyrazolopyrimidine Amide Inhibitors of Phosphoinositide 3-Kinase γ (PI3Kγ)” (J Med Chem, 2022).

Columns and labels:
[1] = Hepatic clearance in Sprague-Dawley rat by LC-MS/MS analysis; assay type: ADME; conditions: in vivo
[2] = target: T1, Phosphatidylinositol 4,5-bisphosphate 3-kinase catalytic subunit gamma isoform (Homo sapiens, UniProt P48736); assay: Inhibition of PI3Kgamma (unknown origin) in […] stimulated human THP-1 cells assessed as reduction in Akt phosphorylation level at Ser473 residue preincubated for 60 mins followed by rhMCP-1 stimulation and measured after 2 mins by AlphaLisa assay; assay type: cell-based
T1 sequence (P48736 whole entry, canonical isoform): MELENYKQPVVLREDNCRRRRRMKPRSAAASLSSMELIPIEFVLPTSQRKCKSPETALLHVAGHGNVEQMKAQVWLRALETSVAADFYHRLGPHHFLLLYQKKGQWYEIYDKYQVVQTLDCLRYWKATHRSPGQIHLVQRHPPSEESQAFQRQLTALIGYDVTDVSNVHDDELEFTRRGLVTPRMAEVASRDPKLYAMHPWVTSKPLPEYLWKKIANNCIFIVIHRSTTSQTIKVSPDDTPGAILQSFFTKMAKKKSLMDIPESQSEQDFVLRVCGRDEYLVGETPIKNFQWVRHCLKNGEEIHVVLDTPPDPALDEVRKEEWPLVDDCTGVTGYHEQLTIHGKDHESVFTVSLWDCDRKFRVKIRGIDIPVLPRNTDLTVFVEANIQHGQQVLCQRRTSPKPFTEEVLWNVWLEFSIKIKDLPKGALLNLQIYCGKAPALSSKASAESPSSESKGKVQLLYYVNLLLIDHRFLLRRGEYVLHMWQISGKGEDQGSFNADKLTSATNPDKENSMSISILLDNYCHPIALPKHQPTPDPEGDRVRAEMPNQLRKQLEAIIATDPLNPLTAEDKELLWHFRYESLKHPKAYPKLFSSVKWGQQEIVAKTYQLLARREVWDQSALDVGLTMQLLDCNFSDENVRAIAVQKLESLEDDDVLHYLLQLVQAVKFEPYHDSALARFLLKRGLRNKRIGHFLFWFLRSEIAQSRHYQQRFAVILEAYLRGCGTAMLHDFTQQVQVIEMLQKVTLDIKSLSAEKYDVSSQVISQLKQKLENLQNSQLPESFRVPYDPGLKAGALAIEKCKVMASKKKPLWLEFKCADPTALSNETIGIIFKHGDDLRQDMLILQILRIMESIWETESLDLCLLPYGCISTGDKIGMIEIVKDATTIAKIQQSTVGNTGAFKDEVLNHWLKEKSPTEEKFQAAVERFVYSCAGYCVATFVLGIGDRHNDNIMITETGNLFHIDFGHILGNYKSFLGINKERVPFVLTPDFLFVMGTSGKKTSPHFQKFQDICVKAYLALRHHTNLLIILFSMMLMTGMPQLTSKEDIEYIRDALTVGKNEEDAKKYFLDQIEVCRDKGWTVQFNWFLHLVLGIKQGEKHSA

[3] = target: T1, Phosphatidylinositol 4,5-bisphosphate 3-kinase catalytic subunit gamma isoform; assay: Inhibition of PI3Kgamma (unknown origin) using PIP2 as substrate preincubated for 1 hr followed by substrate addition and measured after 60 mins in presence of ATP by ADP-glo assay
[4] = Metabolic stability in human hepatocytes assessed as intrinsic clearance per 10^6 cells at 0.5 uM by LC-MS/MS analysis; assay type: ADME, cell-based, Hepatocyte; conditions: read-out: CLH
[5] = Metabolic stability in rat hepatocyte assessed as intrinsic clearance per 10^8 cells at 0.5 uM by LC-MS/MS analysis; assay type: ADME, cell-based; conditions: hepatocytes
[6] = target: Phosphatidylinositol 4,5-bisphosphate 3-kinase catalytic subunit alpha isoform (Homo sapiens, UniProt P42336); assay: Inhibition of PI3Kalpha (unknown origin) using PIP2 as substrate preincubated for 1 hr followed by substrate addition and measured after 60 mins in presence of ATP by ADP-glo assay
Phosphatidylinositol 4,5-bisphosphate 3-kinase catalytic subunit alpha isoform, sequence (P42336 whole entry, canonical isoform): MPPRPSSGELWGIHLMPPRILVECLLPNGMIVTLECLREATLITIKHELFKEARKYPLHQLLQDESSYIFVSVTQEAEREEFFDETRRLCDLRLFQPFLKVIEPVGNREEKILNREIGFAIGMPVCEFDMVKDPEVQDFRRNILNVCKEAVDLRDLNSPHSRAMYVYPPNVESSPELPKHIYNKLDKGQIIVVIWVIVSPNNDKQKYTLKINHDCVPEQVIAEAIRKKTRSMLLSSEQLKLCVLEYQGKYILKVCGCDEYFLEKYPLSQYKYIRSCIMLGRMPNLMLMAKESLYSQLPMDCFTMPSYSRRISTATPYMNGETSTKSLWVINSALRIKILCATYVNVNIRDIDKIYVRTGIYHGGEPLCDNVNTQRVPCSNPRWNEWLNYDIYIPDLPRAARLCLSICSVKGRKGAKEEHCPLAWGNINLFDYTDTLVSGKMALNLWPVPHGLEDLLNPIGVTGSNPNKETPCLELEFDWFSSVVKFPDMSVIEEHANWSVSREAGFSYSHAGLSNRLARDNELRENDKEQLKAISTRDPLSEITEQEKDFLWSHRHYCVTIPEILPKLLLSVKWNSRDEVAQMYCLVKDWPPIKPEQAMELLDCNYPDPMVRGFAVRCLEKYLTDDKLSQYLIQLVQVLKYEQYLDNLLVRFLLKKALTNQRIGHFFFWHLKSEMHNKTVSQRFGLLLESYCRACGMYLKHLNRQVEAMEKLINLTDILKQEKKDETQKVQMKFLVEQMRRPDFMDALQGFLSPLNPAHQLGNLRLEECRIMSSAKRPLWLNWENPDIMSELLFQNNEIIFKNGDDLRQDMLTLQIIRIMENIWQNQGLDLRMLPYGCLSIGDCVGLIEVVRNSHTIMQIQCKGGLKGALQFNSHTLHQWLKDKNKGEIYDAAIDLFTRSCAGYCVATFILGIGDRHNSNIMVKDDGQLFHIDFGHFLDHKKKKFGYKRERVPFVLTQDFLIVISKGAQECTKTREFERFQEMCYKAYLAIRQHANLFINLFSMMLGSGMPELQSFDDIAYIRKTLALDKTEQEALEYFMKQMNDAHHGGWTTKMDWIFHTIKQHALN

[7] = target: T2, Phosphatidylinositol 4,5-bisphosphate 3-kinase catalytic subunit delta isoform (Homo sapiens, UniProt O00329); assay: Inhibition of PI3Kdelta (unknown origin) using PIP2 as substrate preincubated for 1 hr followed by substrate addition and measured after 60 mins in presence of ATP by ADP-glo assay
T2 sequence (O00329 whole entry): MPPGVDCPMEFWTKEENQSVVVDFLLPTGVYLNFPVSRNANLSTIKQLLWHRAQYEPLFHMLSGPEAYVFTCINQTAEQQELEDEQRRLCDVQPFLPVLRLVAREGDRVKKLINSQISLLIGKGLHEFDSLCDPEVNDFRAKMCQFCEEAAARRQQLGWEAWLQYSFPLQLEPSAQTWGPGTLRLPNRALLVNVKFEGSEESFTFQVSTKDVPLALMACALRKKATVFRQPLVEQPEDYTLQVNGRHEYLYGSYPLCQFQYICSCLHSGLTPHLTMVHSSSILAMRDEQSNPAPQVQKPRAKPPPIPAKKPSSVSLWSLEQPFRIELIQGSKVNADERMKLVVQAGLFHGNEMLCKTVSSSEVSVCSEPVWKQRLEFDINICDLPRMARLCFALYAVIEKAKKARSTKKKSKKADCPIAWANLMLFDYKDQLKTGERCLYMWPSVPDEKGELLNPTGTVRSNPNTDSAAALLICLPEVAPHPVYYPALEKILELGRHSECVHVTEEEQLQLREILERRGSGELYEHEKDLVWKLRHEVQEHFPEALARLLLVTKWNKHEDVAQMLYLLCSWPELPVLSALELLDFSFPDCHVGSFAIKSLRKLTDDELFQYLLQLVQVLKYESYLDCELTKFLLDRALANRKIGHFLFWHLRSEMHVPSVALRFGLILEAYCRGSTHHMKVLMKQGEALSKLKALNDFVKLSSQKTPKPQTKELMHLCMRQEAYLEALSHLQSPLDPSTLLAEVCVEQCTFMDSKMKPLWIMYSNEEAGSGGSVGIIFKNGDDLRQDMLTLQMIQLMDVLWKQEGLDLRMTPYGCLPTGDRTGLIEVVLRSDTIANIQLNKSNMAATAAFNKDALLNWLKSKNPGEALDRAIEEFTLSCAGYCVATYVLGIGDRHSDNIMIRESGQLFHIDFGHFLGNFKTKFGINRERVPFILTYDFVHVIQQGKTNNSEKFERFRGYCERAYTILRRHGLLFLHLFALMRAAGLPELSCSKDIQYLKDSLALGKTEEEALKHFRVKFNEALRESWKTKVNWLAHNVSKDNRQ

[8] = organism: Homo sapiens; assay: Selectivity ratio of IC50 for inhibition of PI3Kalpha (unknown origin) to IC50 for inhibition of PI3Kgamma (unknown origin)
[9] = organism: Homo sapiens; assay: Selectivity ratio of IC50 for inhibition of PI3Kdelta (unknown origin) to IC50 for inhibition of PI3Kgamma (unknown origin)
[10] = target: CYP3A4 (Homo sapiens, UniProt P08684); assay: in vitro; conditions: human liver microsomes, probe midazolam
CYP3A4, sequence (P08684 whole entry): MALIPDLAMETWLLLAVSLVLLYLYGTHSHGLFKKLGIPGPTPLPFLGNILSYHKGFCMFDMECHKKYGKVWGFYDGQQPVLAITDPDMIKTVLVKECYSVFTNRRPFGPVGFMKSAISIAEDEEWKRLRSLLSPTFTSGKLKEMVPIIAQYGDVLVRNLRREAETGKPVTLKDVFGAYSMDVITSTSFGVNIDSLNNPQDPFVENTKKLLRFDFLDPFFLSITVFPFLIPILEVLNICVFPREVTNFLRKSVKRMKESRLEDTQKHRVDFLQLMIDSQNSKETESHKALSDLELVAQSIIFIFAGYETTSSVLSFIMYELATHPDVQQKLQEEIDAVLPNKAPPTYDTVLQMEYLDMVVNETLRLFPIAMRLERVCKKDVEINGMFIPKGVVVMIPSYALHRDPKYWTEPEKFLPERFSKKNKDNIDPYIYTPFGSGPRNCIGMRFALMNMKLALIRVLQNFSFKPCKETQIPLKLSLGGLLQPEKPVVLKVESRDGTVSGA
Description: Time dependent inhibition of CYP3A4 in human liver microsomes at 10 uM using midazolam as substrate preincubated for 30 mins in presence of NADPH by LC/MS/MS analysis relative to control

| CLH [1] [mL/min/kg] | IC50 [2] [nM] | IC50 [3] [nM] | hepatocyte CLint at 0.5 µM [4] [µL/min/1e6 cells] | hepatocyte intrinsic clearance [5] [µL/min] | IC50 [6] [nM] | IC50 [7] [nM] | Ratio IC50 [8] | Ratio IC50 [9] | inhibition at 30 min, 10 µM [10] [%] | Structure (SMILES) |
| --- | --- | --- | --- | --- | --- | --- | --- | --- | --- | --- |
| 8.3 | 133 | 2.9 | 2.03 | 1.31 | > 10000 | > 10000 | > 3440 | > 3440 | 7 | Cc1cc(-c2ccn3nc(N)c(C(=O)N[C@@H](CO)C4CC4)c3n2)cc2c1C(=O)N([C@@H](C)C1CC1)C2 |
| 48.3 | 638 | 34.1 | 7.31 | 12.2 | – | – | – | – | 33 | Cc1cc(-c2ccn3ncc(C(=O)Nc4cnn(C)c4)c3n2)cc2c1C(=O)N([C@@H](C)C1CC1)C2 |
| 73.3 | 110 | 1.8 | < 1.2 | 2.73 | 995 | 769 | 568 | 439 | 4 | Cc1cc(-c2ccn3nc(N)c(C(=O)N[C@H]4CNC(=O)C4)c3n2)cc2c1C(=O)N([C@@H](C)C1CC1)C2 |
| 5 | 103 | 3.6 | < 1.2 | < 1.2 | 1580 | 1950 | 443 | 547 | 7 | C[C@@H](C1CC1)N1Cc2cc(-c3ccn4nc(N)c(C(=O)NC5CC5)c4n3)cc(C(F)(F)F)c2C1=O |
| 35 | 36 | 2.7 | 4.46 | 4.91 | 519 | 256 | – | 96 | 34 | CNS(=O)(=O)c1cc(-c2ccn3nc(N)c(C(=O)NC4CC4)c3n2)cc2c1C(=O)N([C@@H](C)C1CC1)C2 |
| 76.7 | 292 | 2.3 | 29.3 | 82.7 | 3660 | 1590 | 1580 | 668 | 46 | Cc1cc(-c2ccn3nc(N)c(C(=O)NC4CCC4)c3n2)cc2c1C(=O)N([C@@H](C)C1CC1)C2 |
| 6.7 | 212 | 3.6 | 8.92 | 1.5 | 3300 | 1670 | 904 | 460 | 27 | Cc1cc(-c2ccn3nc(N)c(C(=O)NC4CC4)c3n2)cc2c1C(=O)N([C@@H](C)C1CC1)C2 |
| 15 | 186 | 3.5 | 1.31 | < 1.2 | 713 | 1280 | 205 | 415 | 19 | Cc1cc(-c2ccn3nc(N)c(C(=O)N[C@H](C)CO)c3n2)cc2c1C(=O)N([C@@H](C)C1CC1)C2 |
| 71.7 | 82 | 4.2 | 3.26 | 24.6 | 140 | 123 | 33 | 29 | 14 | Cc1cc(-c2ccn3nc(N)c(C(=O)N[C@@H]4CC[C@@H](O)C4)c3n2)cc2c1C(=O)N([C@@H](C)C1CC1)C2 |
| 43.3 | 127 | 3.4 | 13.4 | 12.2 | – | – | – | – | 49 | Cc1cc(-c2ccn3nc(N)c(C(=O)Nc4cnn(C)c4)c3n2)cc2c1C(=O)N([C@@H](C)C1CC1)C2 |
| 41.7 | 56 | 1.7 | 1.99 | < 1.2 | 384 | 172 | 223 | 100 | 23 | C[C@@H](C1CC1)N1Cc2cc(-c3ccn4nc(N)c(C(=O)NC5CC5)c4n3)cc(S(=O)(=O)C3CC3)c2C1=O |
| 50 | 106 | 1.2 | 4.76 | 10.8 | 188 | 61 | 156 | 51 | 26 | Cc1cc(-c2ccn3nc(N)c(C(=O)N[C@H]4CC[C@H](O)CC4)c3n2)cc2c1C(=O)N([C@@H](C)C1CC1)C2 |
| 71.7 | 76 | 3 | 8.7 | 22.1 | 240 | 155 | 82 | 53 | – | Cc1cc(-c2ccn3nc(N)c(C(=O)N[C@H]4CC[C@](C)(O)CC4)c3n2)cc2c1C(=O)N([C@@H](C)C1CC1)C2 |
| 33 | 156 | 1.8 | 6.21 | 4.59 | 833 | 698 | 464 | 388 | 12 | Cc1cc(-c2ccn3nc(N)c(C(=O)NC4COC4)c3n2)cc2c1C(=O)N([C@@H](C)C1CC1)C2 |
| 12 | 37 | 2.7 | < 1.2 | < 1.2 | 590 | 417 | – | 157 | 37 | C[C@@H](C1CC1)N1Cc2cc(-c3ccn4nc(N)c(C(=O)NC5CC5)c4n3)cc(NS(C)(=O)=O)c2C1=O |
| 88.3 | 43 | 2.4 | < 1.2 | < 1.2 | 351 | 560 | 148 | 236 | 4 | C[C@@H](C1CC1)N1Cc2cc(-c3ccn4nc(N)c(C(=O)NC5CC5)c4n3)cc(S(C)(=O)=O)c2C1=O |
| 8.3 | 58 | 3.6 | 1.67 | < 1.2 | 1480 | 1860 | 411 | 518 | 20 | C[C@@H](C1CC1)N1Cc2cc(-c3ccn4nc(N)c(C(=O)NC5CC5)c4n3)cc(OC(F)(F)F)c2C1=O |
| 68.3 | 67 | 4.8 | 2.03 | < 1.2 | 808 | 835 | 170 | 175 | 16 | CCS(=O)(=O)c1cc(-c2ccn3nc(N)c(C(=O)NC4CC4)c3n2)cc2c1C(=O)N([C@@H](C)C1CC1)C2 |

| Structure (SMILES) | CLH [1] [mL/min/kg] | IC50 [2] [nM] | IC50 [3] [nM] | hepatocyte CLint at 0.5 µM [4] [µL/min/1e6 cells] | hepatocyte intrinsic clearance [5] [µL/min] | IC50 [6] [nM] | IC50 [7] [nM] | Ratio IC50 [8] | Ratio IC50 [9] | inhibition at 30 min, 10 µM [10] [%] |
| --- | --- | --- | --- | --- | --- | --- | --- | --- | --- | --- |
| Cc1cc(-c2ccn3nc(N)c(C(=O)N[C@H]4C[C@H](O)C4)c3n2)cc2c1C(=O)N([C@@H](C)C1CC1)C2 | 40 | – | – | 11.3 | 15.7 | – | – | – | – | 14 |
